# From paper PMC5578959, “Selective LRRK2 kinase inhibition reduces phosphorylation of endogenous Rab10 and Rab12 in human peripheral mononuclear blood cells” (Scientific Reports, 2017)
# Values joined by “and” are separate entries in the source; they are usually repeats but may differ in a detail not shown here. Equal entries are not always repeated.
# Experiments:
# Experiment in all cases: KiNativ profiling in human PBMCs
# Type in all cases: binding
# [1] = system: T1, BRAF; details: Lys2
# T1 construct: purchased ActivX Technologies (KiNativ)
# Description: (§1) Compounds were shipped to ActivX Technologies (San Diego, US) where LRRK2 target engagement and broad kinase profiling was performed using KiNativ™ procedures. Live cell treatment of human peripheral blood mononuclear cells (PBMCs) at two compound concentrations (1 µM and 0.1 µM) were used to evaluate and compare in vitro target engagement and kinase selectivity, respectively (see Supplementary File 1).
# [2] = system: T2, CDK2
# T2 construct: purchased ActivX Technologies (KiNativ)
# Description: as §1
# [3] = system: T3, CHK2
# T3 construct: purchased ActivX Technologies (KiNativ)
# Description: as §1
# [4] = system: T4, CaMK1a; details: Lys1
# T4 construct: purchased ActivX Technologies (KiNativ)
# Description: as §1
# [5] = system: T5, CaMK2d; details: Lys1
# T5 construct: purchased ActivX Technologies (KiNativ)
# Description: as §1
# [6] = system: T6, DNAPK; details: ATP
# T6 construct: purchased ActivX Technologies (KiNativ)
# Description: as §1
# [7] = system: T7, GCN2; details: Lys2
# T7 construct: purchased ActivX Technologies (KiNativ)
# Description: as §1
# [8] = system: T8, HPK1
# T8 construct: purchased ActivX Technologies (KiNativ)
# Description: as §1
# [9] = system: T9, IKKb; details: Lys2
# T9 construct: purchased ActivX Technologies (KiNativ)
# Description: as §1
# [10] = system: T10, IKKe; details: Lys1
# T10 construct: purchased ActivX Technologies (KiNativ)
# Description: as §1
# [11] = system: T11, ILK
# T11 construct: purchased ActivX Technologies (KiNativ)
# Description: as §1
# [12] = system: T12, IRAK1; details: Lys2
# T12 construct: purchased ActivX Technologies (KiNativ)
# Description: as §1
# [13] = system: T13, IRAK4
# T13 construct: purchased ActivX Technologies (KiNativ)
# Description: as §1
# [14] = system: T14, KSR1; details: 0.1µM; Activation Loop
# T14 construct: purchased ActivX Technologies (KiNativ)
# Description: as §1
# [15] = system: T15, LATS2; details: Lys2
# T15 construct: purchased ActivX Technologies (KiNativ)
# Description: as §1
# [16] = system: T16, LRRK2; details: Lys2
# T16 construct: purchased ActivX Technologies (KiNativ)
# Description: as §1
# [17] = system: T17, MAP2K6
# T17 construct: purchased ActivX Technologies (KiNativ)
# Description: as §1
# [18] = system: T18, MAP3K1; details: Lys2
# T18 construct: purchased ActivX Technologies (KiNativ)
# Description: as §1
# [19] = system: T19, MAP3K2; details: Lys1
# T19 construct: purchased ActivX Technologies (KiNativ)
# Description: as §1
# [20] = system: T20, MAST3; details: Lys2
# T20 construct: purchased ActivX Technologies (KiNativ)
# Description: as §1
# [21] = system: T21, MST3; details: Lys2
# T21 construct: purchased ActivX Technologies (KiNativ)
# Description: as §1
# [22] = system: MST4,YSK1; details: Lys2
# Description: as §1
# [23] = system: T22, NEK4; details: Lys2
# T22 construct: purchased ActivX Technologies (KiNativ)
# Description: as §1
# [24] = system: T23, NuaK2; details: Lys1
# T23 construct: purchased ActivX Technologies (KiNativ)
# Description: as §1
# [25] = system: T24, PFTAIRE1; details: Lys1
# T24 construct: purchased ActivX Technologies (KiNativ)
# Description: as §1
# [26] = system: T25, PIP5K3; details: ATP
# T25 construct: purchased ActivX Technologies (KiNativ)
# Description: as §1
# [27] = system: T26, PKN1; details: Lys1
# T26 construct: purchased ActivX Technologies (KiNativ)
# Description: as §1
# [28] = system: T27, PRPK; details: ATP Loop
# T27 construct: purchased ActivX Technologies (KiNativ)
# Description: as §1
# [29] = system: T28, RIPK3; details: Lys2
# T28 construct: purchased ActivX Technologies (KiNativ)
# Description: as §1
# [30] = system: T29, RSK3 domain1; details: Lys2
# T29 construct: RSK3 domain1; purchased ActivX Technologies (KiNativ)
# Description: as §1
# [31] = system: T30, SYK
# T30 construct: purchased ActivX Technologies (KiNativ)
# Description: as §1
# [32] = system: T31, TAK1; details: Lys2
# T31 construct: purchased ActivX Technologies (KiNativ)
# Description: as §1
# [33] = system: T32, TLK1
# T32 construct: purchased ActivX Technologies (KiNativ)
# Description: as §1
# [34] = system: Wnk1,Wnk2; details: ATP Loop
# Description: as §1
# [35] = system: T33, ZAP70
# T33 construct: purchased ActivX Technologies (KiNativ)
# Description: as §1
# [36] = system: p70S6K,p70S6Kb; details: ATP Loop
# Description: as §1
smiles,measurement,setting,value
Cc1cccc(-c2cc(Nc3ccn(C)n3)nc3[nH]cc(C#N)c23)c1 [Lu AF58786],Inhibition,[1]; 0.1µM,6.1%
same,Inhibition,[1]; 1µM,-13.8%
same,Inhibition,"[2]; 0.1µM, Lys1",5.0%
same,Inhibition,"[2]; 0.1µM, Lys2",7.1%
same,Inhibition,"[2]; 1µM, Lys1",9.2%
same,Inhibition,"[2]; 1µM, Lys2",5.2%
same,Inhibition,"[3]; 0.1µM, Lys1",15.1%
same,Inhibition,"[3]; 0.1µM, Lys2",2.3%
same,Inhibition,"[3]; 1µM, Lys1",2.8%
same,Inhibition,"[3]; 1µM, Lys2",-16.2%
same,Inhibition,[4]; 0.1µM,11.0%
same,Inhibition,[4]; 1µM,-3.0%
same,Inhibition,[5]; 0.1µM,3.9%
same,Inhibition,[5]; 1µM,-3.2%
same,Inhibition,"[6]; 0.1 µM, EHPFLVKGGEDLR",19.6%
same,Inhibition,"[6]; 0.1 µM, KGGSWIQEINVAEK",-21.8%
same,Inhibition,"[6]; 1 µM, KGGSWIQEINVAEK",2.3%
same,Inhibition,[7]; 0.1µM,-20.3%
same,Inhibition,[7]; 1µM,-15.5%
same,Inhibition,"[8]; 0.1µM, Lys2",13.0%
same,Inhibition,"[8]; 1µM, Lys1",8.1%
same,Inhibition,"[8]; 1µM, Lys2",21.1%
same,Inhibition,[9]; 0.1µM,11.5%
same,Inhibition,[9]; 1µM,-4.3%
same,Inhibition,[10]; 0.1µM,8.3%
same,Inhibition,[10]; 1µM,-0.117%
same,Inhibition,"[11]; 0.1µM, Lys1",2.8%
same,Inhibition,"[11]; 0.1µM, Protein Kinase Domain",-27.2%
same,Inhibition,"[11]; 1µM, Lys1",5.7%
same,Inhibition,"[11]; 1µM, Protein Kinase Domain",-1.7%
same,Inhibition,[12]; 0.1µM,3.0%
same,Inhibition,[12]; 1µM,1.7%
same,Inhibition,"[13]; 0.1µM, Lys1",16.2%
same,Inhibition,"[13]; 0.1µM, Lys2",7.0%
same,Inhibition,"[13]; 1µM, Lys1",13.3%
same,Inhibition,"[13]; 1µM, Lys2",8.9%
same,Inhibition,[14],-19.0%
same,Inhibition,[15]; 0.1µM,9.3%
same,Inhibition,[15]; 1µM,-1.5%
same,Inhibition,[16]; 0.1 µM,83% and 83.4%
same,Inhibition,[16]; 1 µM,93% and 93.4%
same,Inhibition,"[17]; 0.1µM, Lys1",2.0%
same,Inhibition,"[17]; 0.1µM, Lys2",5.6%
same,Inhibition,"[17]; 1µM, Lys1",2.8%
same,Inhibition,"[17]; 1µM, Lys2",-7.5%
same,Inhibition,[18]; 0.1µM,9.1%
same,Inhibition,[18]; 1µM,0.247%
same,Inhibition,[19]; 0.1µM,26.8%
same,Inhibition,[19]; 1µM,18.5%
same,Inhibition,[20]; 0.1µM,11.5%
same,Inhibition,[20]; 1µM,0.2%
same,Inhibition,[21]; 0.1µM,12.8%
same,Inhibition,[21]; 1µM,1.2%
same,Inhibition,[22]; 0.1µM,22.5%
same,Inhibition,[22]; 1µM,4.6%
same,Inhibition,[23]; 0.1µM,-32.0%
same,Inhibition,[23]; 1µM,-14.9%
same,Inhibition,[24]; 0.1µM,20.0%
same,Inhibition,[24]; 1µM,38.2%
same,Inhibition,[25]; 0.1µM,5.8%
same,Inhibition,[25]; 1µM,-10.2%
same,Inhibition,[26]; 0.1µM,-2.2%
same,Inhibition,[26]; 1µM,4.2%
same,Inhibition,[27]; 0.1µM,18.4%
same,Inhibition,[27]; 1µM,13.6%
same,Inhibition,[28]; 0.1µM,1.0%
same,Inhibition,[28]; 1µM,8.9%
same,Inhibition,[29]; 0.1µM,2.4%
same,Inhibition,[29]; 1µM,-10.9%
same,Inhibition,[30]; 0.1µM,12.9%
same,Inhibition,[30]; 1µM,26.9%
same,Inhibition,"[31]; 0.1µM, Activation Loop",8.3%
same,Inhibition,"[31]; 0.1µM, Lys1",12.8%
same,Inhibition,"[31]; 1µM, Lys1",-5.9%
same,Inhibition,[32]; 0.1µM,21.8%
same,Inhibition,[32]; 1µM,-11.4%
same,Inhibition,"[33]; 0.1µM, Lys1",2.2%
same,Inhibition,"[33]; 0.1µM, Lys2",16.2%
same,Inhibition,"[33]; 1µM, Lys1",15.4%
same,Inhibition,"[33]; 1µM, Lys2",4.7%
same,Inhibition,[34]; 0.1µM,12.8%
same,Inhibition,[34]; 1µM,3.9%
same,Inhibition,"[35]; 0.1µM, Activation Loop",14.7%
same,Inhibition,"[35]; 0.1µM, Lys1",4.6%
same,Inhibition,"[35]; 1µM, Activation Loop",7.0%
same,Inhibition,"[35]; 1µM, Lys1",7.9%
same,Inhibition,[36]; 0.1µM,3.7%
same,Inhibition,[36]; 1µM,-2.7%
